Measured values published in patent US8003673B2, “Daptomycin for the treatment of biofilm and catheter salvage” (Cubist Pharmaceuticals, Inc., priority 2006, dated 2011).
Values after ≈ are worked out from the molar mass of the structure shown. “Also recorded” adds a separate entry of the source. Read-outs that look alike come from different tables or passages of the source.

Columns and labels:
[1] = tested on: stationary phase S. epidermidis; experiment: In vitro model of stationary phase bacteria (kill kinetics); assay type: cell-based; settings: for Cidal activity against stationary phase culture: through 24 hours
Protocol: The impact of cidal activity of antibacterial compounds on stationary phase bacteria was assayed. Cultures of S. epidermidis and S. aureus were grown to stationary phase (>1×10^9 and centrifuged, washed 2×, and then resuspended into saline or lactated Ringer's solution. The cultures were treated with either daptomycin or vancomycin at 5 mg/ml and the decrease in viable bacteria were measured through 24 hours to determine the kill kinetics.

[2] = tested on: Staphylococcus aureus; experiment: Susceptibility (MIC) of S. aureus #42 control strain; assay type: cell-based; settings: strain 42 Staphylococcus aureus; read-out: MIC
[3] = tested on: Methicillin-resistant coagulate negative staphylococci biofilms; assay type: cell-based, coagulase negative staphylococci (S. epidermidis isolates)
Protocol: Methicillin-resistant coagulate negative staphylococci biofilms were grown to approximately 10^5 cells per cm^2 for 24 h in glass test tubes, planktonic bacteria rinsed away and Mueller Hinton broth (calcium supplemented to […] in daptomycin tests) containing antimicrobials added to the tubes. The concentrations of antimicrobials studied were two-fold dilutions from 64 to 1 μg/mL of daptomycin, rifampin, or daptomycin plus 0.5 μg/mL rifampin. The tests were incubated overnight in room air at 37° C. The cell density in rinsed biofilms was determined prior to addition of antimicrobials and after incubation. The change in bacterial density after incubation with antimicrobials was determined, and the results were expressed as the lowest antimicrobial concentration that killed 99.90% of biofilm bacteria. Bacteria recovered from tests containing rifampin were tested for rifampin susceptibility.

[4] = tested on: S. epidermidis CVC infection; experiment: Rat model of CVC infection, infusion therapy; assay type: in vivo, Sprague Dawley rats
Protocol: (§1) Male Sprague Dawley rats (˜250 g) with catheterized jugular veins were used in these studies. Rat catheters (polyurethane tubing, 0.025 inch internal diameter) were inoculated with a culture of S. epidermidis at 5×10^8 CFU/ml. The total volume of the catheters is approximately 40 μl. The catheters were flushed with heparinized saline 1 hour after inoculation, and were maintained by daily flushes. The catheter infection was monitored by daily blood draws that were plated and quantified.
(§2) Daptomycin, vancomycin and nafcillin were used as therapy. Two different dosing regimes were used. The first mimicked clinical infusion with daptomycin administered at 5 mg/ml in the line for 30 minutes once daily compared to vancomycin at 5 mg/ml for 60 minutes twice daily, for a total of 4 days. The second regime simulated antibiotic lock therapy with an 18 hour exposure of daptomycin or vancomycin at 5 mg/ml, followed by a heparinized saline flush, daily for 3 days. In both regimes, the animals received parenteral doses of the appropriate antibiotic by subcutaneous route to simulate total body exposure (as it was not possible to administer the correct dosages through the line at 5 mg/ml). Most trials involved a therapy period, followed by a period of no antibiotic therapy to monitor for resurgence of infection due to surviving bacterial colonies.
(§3) Infection levels were monitored by daily blood draws through the infected catheter. For the terminal harvest, a final blood draw was taken and then the flushed catheter was harvested, and analyzed for surviving bacteria by sonication, vortexing, and plating. The vena cava, heart, lung, kidney, and spleen were assayed as potential metastatic infection sites by aseptic harvest, homogenization, and plating.

[5] = tested on: S. epidermidis CVC infection; experiment: Rat model of CVC infection, antibiotic lock therapy; assay type: in vivo, Sprague Dawley rats
Protocol: as §1, §2, §3

[6] = tested on: Staphylococcus epidermidis; experiment: Susceptibility (MIC) of S. epidermidis isolates used in CVC studies
[7] = tested on: S. epidermidis biofilm in catheter; experiment: Histopathology of CVC biofilms in the rat model; assay type: in vivo, Sprague Dawley rats
Protocol: The nature of the CVC infection and resulting biofilms in the catheter was determined through histopathology. The data on histopathology can be summarized as follows: • 1. Eight days after implantation, the rat central venous catheter model develops focal biofilms with or without bacterial colonies in the catheter's inner luminal surfaces. At this time point, the thickness of the biofilm varies between 7 to 15 microns. • 2. After 12 days of implantation, the fibrils making up the inner luminal surface biofilm appear to be denser and more organized, and the biofilm layer is slightly thicker (up to 25 microns). • 3. In the saline negative controls, bacterial colonies were present in the biofilm, and identified as Gram positive cocci. • 4. […] However, cocci-like, Gram positive individual round structures were noted. • 5.
At day 12 post infection in untreated rats, as in the previous time point, biofilms tended to be present in the inner luminal surfaces of the indwelling catheter, 5-25 microns thick, and contained variable numbers of basophilic granular bacterial colonies (confirmed by Gram stain). However, in contrast to the previous time point, focal portions of the luminal protein cast appeared to be more organized and contained numerous bluish bacterial colonies. See FIG. 10 showing the biofilm appearance at day 12 post infection. […] Rat A1 served as negative control and received saline (2 mL/kg SC+saline via catheter); Rat A6 received low-dose daptomycin (10 mg/kg SC+5 mg/mL via catheter); Rat A12 received high-dose daptomycin (33 mg/kg SC+5 mg/mL via catheter); and Rat A17 received vancomycin (50 mg/kg SC+5 mg/mL via catheter). Tissues from the four rats were evaluated. FIG. 11, below, is a composite of the findings for all four rats.
FIG. 11 provides histopathological evidence of daptomycin and vancomycin efficacy after 4 days of infusion therapy. In FIG. 11, from left to right, the images illustrate the CVC tissues from rats A1, A6, A12, and A17, respectively. The upper images are all H&E-stained and the bottom images are all Gram-stained. […] These round structures surrounded or encircled cell membranes.

[8] = Antimicrobial Concentration ≧64
[9] = following 7 days of antibiotic-free heparin flushes

In the case of `CCCCCCCCCC(=O)N[C@@H](Cc1c[nH]c2ccccc12)C(=O)N[C@H](CC(N)=O)C(=O)N[C@@H](CC(=O)O)C(=O)N[C@@H]1C(=O)NCC(=O)N[C@@H](CCCN)C(=O)N[C@@H](CC(=O)O)C(=O)N[C@H](C)C(=O)N[C@@H](CC(=O)O)C(=O)NCC(=O)N[C@H](CO)C(=O)N[C@@H]([C@H](C)CC(=O)O)C(=O)N[C@@H](CC(=O)c2ccccc2N)C(=O)O[C@@H]1C` [Daptomycin], the “Cidal activity against stationary phase culture” value ([1]; 5 mg/ml in lactated Ringer's) is reported as “rapidly cidal; also recorded: cidal in lactated Ringer's”, the “Cidal activity against stationary phase culture” value ([1]; 5 mg/ml in saline) is reported as “neither daptomycin nor vancomycin had cidal activity” and the “Cidal activity against stationary phase S. epidermidis (conclusion)” value ([1]; in vitro, medium not stated) is reported as “cidal”. The MIC [2] was 0.5 µg/mL (≈ 0.309 µM), the “# of isolates (lowest concentration that killed 99.90% of biofilm bacteria)” value ([3]; Antimicrobial Concentration 1) was 0 and the “# of isolates (lowest concentration that killed 99.90% of biofilm bacteria)” value ([3]; Antimicrobial Concentration 2) was 5. For the same molecule, the “Mean log10 reduction” value ([3]; Antimicrobial Concentration 2) was 3.3 log10, the “# of isolates (lowest concentration that killed 99.90% of biofilm bacteria)” value ([3]; Antimicrobial Concentration 4) was 4 and the “Mean log10 reduction” value ([3]; Antimicrobial Concentration 4) was 3.2 log10. The “# of isolates (lowest concentration that killed 99.90% of biofilm bacteria)” value ([3]; Antimicrobial Concentration 8) was 5, the “Mean log10 reduction” value ([3]; Antimicrobial Concentration 8) was 3.8 log10 and the “# of isolates (lowest concentration that killed 99.90% of biofilm bacteria)” value ([3]; Antimicrobial Concentration 16) was 1. For the same molecule, the “Mean log10 reduction” value ([3]; Antimicrobial Concentration 16) was 3.5 log10, the “# of isolates (lowest concentration that killed 99.90% of biofilm bacteria)” value ([3]; Antimicrobial Concentration 32) was 2 and the “Mean log10 reduction” value ([3]; Antimicrobial Concentration 32) was 3.6 log10. The “# of isolates (lowest concentration that killed 99.90% of biofilm bacteria)” value [3, 8] was 10, the “Mean log10 reduction” value [3, 8] was 2.0 log10 and the “Emergence of rifampin resistance in biofilm isolates” value ([3]; after exposure overnight) was “did not prevent emergence of rifampin resistance”. The “Cidal concentration in biofilm relative to comparator” value ([3]; comparison with rifampin) was “cidal at lower concentrations than was rifampin”, the “Isolates with bactericidal activity in biofilm” value ([3]; with ≦32 μg/mL daptomycin) was 27 of 30 and the “Catheter infection by CVC blood draw after infusion therapy” value ([4]; 5 mg/ml in line, daptomycin once a day, vancomycin twice a day, after three days of therapy (day 8)) was “reduced most catheter infections to a non-detectable level”. The “Overall outcome of infusion therapy” value ([4]; 30 minute infusion at 5 mg/ml) was “temporarily reduced catheter infections to a non-detectable level, but infection resurgence was common; also recorded: reduced biofilm to non-detectable level, but a resurgence of infection was common”, the “Metastatic infection after infusion therapy (vena cava, heart, lung, kidney, spleen)” value ([4]; infusion therapy, same groups as FIG. 3) was “very little metastatic infection at any site” and the “Overall outcome of lock therapy” value ([5]; 18 hour lock at 5 mg/ml) was “curative and prevented resurgence; also recorded: reduced biofilm to a non-detectable level and largely prevented resurgence of infection”. The “Animals with positive blood draws after lock therapy” value [5, 9] was 0/6, the “Animals with positive catheter at harvest after lock therapy” value [5, 9] was 1/6 and the “Metastatic infection after lock therapy” value ([5]; lock therapy combined with SC dosing) was “cleared and prevented reemergence of metastatic infection”. It also gave an MIC ([6]; strain 119 Staphylococcus epidermidis) of 0.25 µg/mL (≈ 0.154 µM), an MIC ([6]; strain 1315 Staphylococcus epidermidis) of 0.5 µg/mL (≈ 0.309 µM) and an MIC ([6]; strain 1316 Staphylococcus epidermidis) of 0.5 µg/mL (≈ 0.309 µM). For the same molecule, the MIC ([6]; strain 1317 Staphylococcus epidermidis) was 1 µg/mL (≈ 0.617 µM), the MIC ([6]; strain 1318 Staphylococcus epidermidis) was 1 µg/mL (≈ 0.617 µM) and the MIC ([6]; strain 1319 Staphylococcus epidermidis) was 1 µg/mL (≈ 0.617 µM). For the same molecule, the MIC ([6]; strain 1320 Staphylococcus epidermidis) was 0.5 µg/mL (≈ 0.309 µM), the “Biofilm formation and Gram positive bacterial colonies in the biofilm (histopathology summary)” value ([7]; 5 mg/mL via the catheter) was “did not prevent biofilm formation, but prevented the growth and presence of Gram positive bacterial colonies in the biofilm” and the “Bacterial colonies in biofilm, histopathology of single rats” value ([7]; after 4 days of infusion therapy, rat A12 daptomycin 33 mg/kg SC + 5 mg/mL via catheter, rat A17 vancomycin 50 mg/kg SC + 5 mg/mL via catheter) was “not interpreted to be bacterial colonies”.
